Source: US5817670A, “Naphthyridine derivatives and pharmaceutical compositions thereof” (Yamanouchi Pharmaceutical Co., Ltd., priority 1994, dated 1998)

Legend:
[1] = target: T1, type II phosphodiesterase (Rattus norvegicus, UniProt Q01062); assay: Phosphodiesterase inhibition activity (in vitro), Type II; assay type: biochemical; conditions: Type II phosphodiesterase column
T1 construct: purified from rat heart muscle cells; from tissue; host or cells: rat heart, soluble fraction, Q Sepharose
T1 sequence (Q01062 1-928): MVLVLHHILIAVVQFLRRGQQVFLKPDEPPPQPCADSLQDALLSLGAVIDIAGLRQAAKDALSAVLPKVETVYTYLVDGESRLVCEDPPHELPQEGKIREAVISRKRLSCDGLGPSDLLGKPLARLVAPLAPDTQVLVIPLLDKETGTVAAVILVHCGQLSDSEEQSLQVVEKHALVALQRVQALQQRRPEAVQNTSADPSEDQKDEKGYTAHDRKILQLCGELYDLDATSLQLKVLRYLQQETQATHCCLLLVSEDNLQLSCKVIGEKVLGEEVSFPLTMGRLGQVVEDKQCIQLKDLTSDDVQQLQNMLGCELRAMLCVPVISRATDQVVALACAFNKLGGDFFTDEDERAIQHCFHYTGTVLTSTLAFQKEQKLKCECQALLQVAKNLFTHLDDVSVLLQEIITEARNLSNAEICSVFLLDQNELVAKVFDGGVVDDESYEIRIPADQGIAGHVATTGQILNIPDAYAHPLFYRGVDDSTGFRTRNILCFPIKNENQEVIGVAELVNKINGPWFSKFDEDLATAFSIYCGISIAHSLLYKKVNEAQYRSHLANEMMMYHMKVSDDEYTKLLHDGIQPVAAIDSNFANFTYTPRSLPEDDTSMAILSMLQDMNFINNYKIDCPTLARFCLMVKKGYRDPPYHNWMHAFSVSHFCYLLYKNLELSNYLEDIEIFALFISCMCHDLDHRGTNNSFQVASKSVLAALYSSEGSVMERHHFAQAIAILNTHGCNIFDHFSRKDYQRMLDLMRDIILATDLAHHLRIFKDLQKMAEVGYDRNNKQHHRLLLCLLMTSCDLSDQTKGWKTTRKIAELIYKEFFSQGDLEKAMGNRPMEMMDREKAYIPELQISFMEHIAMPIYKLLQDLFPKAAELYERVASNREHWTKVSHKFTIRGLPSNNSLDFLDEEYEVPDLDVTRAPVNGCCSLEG
From the text: (§1) (A) In order to evaluate selectivity of the compounds of the present invention for type IV phosphodiesterase, types I, II, III and V phosphodiesterase isozymes were purified in the following manner.
1) Solutions containing various phosphodiesterase (types I, II and III) isozymes were purified from rat heart muscle cells in the following manner. Under ether anesthesia, Wistar rat was subjected to thoracotomy to excise the heart. After removing blood by perfusion with physiological saline supplemented with heparin (1 unit/ml), the heart was finely chopped with scissors. This was suspended in buffer A (20 mM Bis-Tris, 5 mM dithioerythritol, 2 mM EGTA and 50 mM sodium acetate, pH 6.5) containing a protease inhibitor (50 μM phenyl-methyl-sulfonyl-fluoride, 5 μM pepstatin A, 40 μM leupeptin, 20 μM aprotinin or 2 mM benzamidine) and then the cells were disrupted using polytron and sonicator and subjected to ultracentrifugation (4° C., 100,000×g, 60 minutes) to give a soluble fraction.
(§2) 2) Solutions containing various phosphodiesterase isozymes were obtained from the thus obtained soluble fraction in the following manner. The thus, obtained soluble fraction was applied to a column of 1.6×10.0 cm packed with Q Sepharose which had been equilibrated with buffer A. Next, said column was washed with 300 ml of buffer A to remove non-absorbed protein. Phosphodiesterase was eluted with 200 ml of buffer A having 0.05 to 1.25M linear gradient of sodium acetate to collect about 40 fractions each containing 5.0 ml eluate. Each fraction was checked for cAMP- and cGMP-metabolizing phosphodiesterase activities. Of these fractions, a fraction having only cAMP-metabolizing activity and showing disappearance of the metabolizing activity by 0.1 μM cilostamide (a type III phosphodiesterase selective inhibitor) was used as the type III phosphodiesterase. […] These fractions were separately collected to be used as phosphodiesterase (types I, II and III) stock solutions for the examination of selectivity. p1 3) A solution containing type V phosphodiesterase was prepared from peripheral blood of a healthy person in the following manner. A 200 ml portion of physiological saline supplemented with dextran (3%) was added to 500 ml of heparinized peripheral blood and incubated at 37° C. for 40 minutes to effect precipitation of erythrocytes. The supernatant fluid after precipitation of erythrocytes was recovered and centrifuged once, and the resulting precipitate was suspended in buffer B (140 mM NaCl, 5 mM KCl, 5 mm glucose and 10 mM HEPES, pH 7.4), overlaid on a solution for density gradient centrifugation use (Ficoll solution) and then centrifuged at room temperature for 40 minutes at 450×g, thereby separating monocyte fraction and granulocyte fraction. The granulocyte fraction was washed once with buffer C (140 mM NaCl, 5 mM KCl, 1 mM CaCl2, 1 mM MgCl2, 5 mM glucose and 10 mM HEPES, pH 7.4) and suspended in buffer D (20 mM Bis-Tris, 5 mM dithioerythritol, 2 mM EGTA and 50 mM sodium acetate, pH 6.5) containing a protease inhibitor (40 μM leupeptin, 5 μM pepstatin A, 20 μM aprotinin, 50 μM phenyl-methyl-sulfonyl-fluoride or 2 mM benzamidine) and then the cells were disrupted using polytron and sonicator and subjected to ultracentrifugation (4° C., 100,000×g, 60 minutes) to give a soluble fraction.
(§3) (B) Inhibitory activities were measured using the thus obtained stock solutions of various phosphodiesterase isozymes.
(§4) 1) A predetermined amount of each compound to be tested was subjected to 10 minutes of reaction at 30° C. in a reaction mixture containing 40 mM Tris-HCl (pH 8.0), 5 mM MgCl2, 4 mM 2-mercaptoethanol, 10 μM rolipram (a type IV phosphodiesterase selective inhibitor), 1 μM cAMP, 10 nM ^3 H-cAMP (in the case of type V phosphodiesterase, 1 μM cAMP and 10 nM ^3 H-cAMP are replaced by 1 μM cGMP and 100 nM ^3 H-cGMP) and each of the isozyme stock solutions. […]

type V phosphodiesterase = target: T2, type V phosphodiesterase (Homo sapiens, UniProt O76074); assay: Phosphodiesterase inhibition activity (in vitro), Type V; assay type: biochemical, human (peripheral blood of a healthy person); conditions: 1 μM cGMP
T2 construct: from tissue; host or cells: human peripheral blood granulocyte fraction, soluble, Q Sepharose
From the text: as §1, §2
4) The thus obtained soluble fraction was applied to a column of 1.6×10 cm packed with Q Sepharose which had been equilibrated with buffer D. Next, the column was washed with 120 ml of buffer D to remove non-absorbed protein. Phosphodiesterase was eluted with 300 ml of buffer D having 0.05 to 1.25M linear gradient of sodium acetate to collect fractions each containing 5.0 ml eluate. Each fraction was checked for cAMP- and cGMP-metabolizing phosphodiesterase activities. Fractions having only cGMP metabolizing activity were collected to be used as the type V phosphodiesterase stock solution.
as §3
as §4, with “solutions. After completion of the reaction, the reaction mixture was boiled at 90° C. for 1 minute, ice-cooled, mixed with 1 unit of 5'-nucleotidase and then subjected to 10 minutes of reaction at 30° C., and the reaction was stopped by adding 1 ml of methanol.” for “solutions.”

`CCc1cc(C)c2c(-c3cccc(Cl)c3)cc(=O)n(CC)c2n1` [Example 39, 4-(3-Chlorophenyl)-1,7-diethyl-5-methyl-1,8-naphthyridin-2(1H)-one] gave an IC50 [1] greater than 3000 nM and an IC50 (type V phosphodiesterase) of 1050 nM.
